Experimental data from ChEMBL document CHEMBL2202954, “The effect of PLC-γ2 inhibitors on the growth of human tumour cells” (2012).

Experiments:
Type in all cases: functional
[1] = system: MDA-MB-435; assay: Cytotoxicity against human MDA-MB-435 cells assessed as cellular growth at 10 uM by SRB assay
[2] = system: SF-295; assay: Cytotoxicity against human SF295 cells assessed as cellular growth at 10 uM by SRB assay
[3] = system: EKVX; assay: Cytotoxicity against human EKVX cells assessed as cellular growth at 10 uM by SRB assay
[4] = system: IGROV-1; assay: Cytotoxicity against human IGROV1 cells assessed as cellular growth at 10 uM by SRB assay
[5] = system: UACC-62; assay: Cytotoxicity against human UACC62 cells assessed as cellular growth at 10 uM by SRB assay
[6] = system: MOLT-4; assay: Cytotoxicity against human MOLT4 cells assessed as cellular growth at 10 uM by SRB assay
[7] = system: COLO 205; assay: Cytotoxicity against human COLO205 cells assessed as cellular growth at 10 uM by SRB assay
[8] = system: CAKI-1; assay: Cytotoxicity against human Caki1 cells assessed as cellular growth at 10 uM by SRB assay
[9] = system: OVCAR-4; assay: Cytotoxicity against human OVCAR4 cells assessed as cellular growth at 10 uM by SRB assay
[10] = system: MDA-MB-231; assay: Cytotoxicity against human MDA-MB-231 cells assessed as cellular growth at 10 uM by SRB assay
[11] = system: SR; assay: Cytotoxicity against human SR cells assessed as cellular growth at 10 uM by SRB assay
[12] = system: SN12C; assay: Cytotoxicity against human SN12C cells assessed as cellular growth at 10 uM by SRB assay
[13] = system: OVCAR-5; assay: Cytotoxicity against human OVCAR5 cells assessed as cellular growth at 10 uM by SRB assay
[14] = system: HL-60(TB); assay: Cytotoxicity against human HL-60(TB) cells assessed as cellular growth at 10 uM by SRB assay
[15] = system: Malme-3M; assay: Cytotoxicity against human MALME-3M cells assessed as cellular growth at 10 uM by SRB assay
[16] = system: HT-29; assay: Cytotoxicity against human HT-29 cells assessed as cellular growth at 10 uM by SRB assay
[17] = system: SK-MEL-2; assay: Cytotoxicity against human SK-MEL-2 cells assessed as cellular growth at 10 uM by SRB assay
[18] = system: DU-145; assay: Cytotoxicity against human DU145 cells assessed as cellular growth at 10 uM by SRB assay
[19] = system: A498; assay: Cytotoxicity against human A498 cells assessed as cellular growth at 10 uM by SRB assay
[20] = system: HOP-92; assay: Cytotoxicity against human HOP92 cells assessed as cellular growth at 10 uM by SRB assay

SMILES | Activity [1] [%] | Activity [2] [%] | Activity [3] [%] | Activity [4] [%] | Activity [5] [%] | Activity [6] [%] | Activity [7] [%] | Activity [8] [%] | Activity [9] [%] | Activity [10] [%] | Activity [11] [%] | Activity [12] [%] | Activity [13] [%] | Activity [14] [%] | Activity [15] [%] | Activity [16] [%] | Activity [17] [%] | Activity [18] [%] | Activity [19] [%] | Activity [20] [%]
Nc1c(C(=O)Nc2ccc(Cl)c(Cl)c2)sc2nc(-c3cccs3)ccc12 | 83.41 | 106.17 | 93.39 | 122.32 | 79.48 | 83.49 | 115.1 | 95.41 | 55.74 | 84.38 | 56.67 | 89.08 | 94.42 | 99.11 | 90.04 | 87.42 | 58.47 | 91.96 |  | 
COc1ccc2[nH]c(C(=O)NCc3ccccc3)cc2c1 | 104.78 | 131.65 | 78.14 | 99.05 | 91.05 | 83.12 | 123.53 | 87.15 | 93.84 | 91.31 | 91.93 | 97.3 | 116.46 | 95.91 | 88.8 | 102.88 | 108.1 | 111.13 | 92.89 | 
O=S(=O)(Oc1ccc(-c2cnc3ccccc3n2)cc1)c1ccccc1 | 96.88 | 94.02 | 93.17 | 130.45 | 78.48 | 75.6 |  | 100.14 | 96.73 | 105.17 | 85.09 | 95.17 | 101.99 | 94.23 | 92.27 | 78.71 | 109.62 | 107.72 | 60.82 | 
Cc1ccc(S(=O)(=O)NC2=NC(=O)/C(=C\c3ccccc3)S2)cc1 | 110.94 | 114.32 | 99.77 | 124.8 | 96.39 | 86.66 |  | 102.92 | 96.34 | 100.89 | 95.9 | 99.26 | 111.88 | 92.36 | 112.01 | 109.22 | 117.54 | 111.67 | 11.33 | 
Cc1ccccc1NC(=O)c1sc2nc3c(cc2c1N)C(=O)CCC3 | -12.89 | 57.18 | 87.53 | 77.05 | 36.9 | 67.51 | 6.12 | 55.35 | 67.57 | 61.61 | 34.35 | 64.53 | 80.78 | 36.05 | 66.45 | 21.08 | 58.56 | 18.31 | 31.28 | 
O=C(Nc1nc2ccc(Cl)cc2s1)c1ccc(Cl)cc1 | 90.92 | 87.02 | 94 | 119.2 | 101.97 | 95.76 | 105.29 | 81.52 | 100.6 | 98.56 | 94.31 | 122.51 | 115.32 | 100.76 | 110.45 | 107.3 | 111.04 | 114.57 | 94.69 | 
O=C(Nc1ccc(S(=O)(=O)Nc2nccs2)cc1)c1cccs1 | 110.15 | 140.51 | 97.85 | 120.24 | 104.61 | 95.09 | 135.23 | 99.02 | 103.47 | 103.15 | 101.57 | 103.07 | 112.09 | 85.93 | 104.82 | 101.43 | 113.23 | 114.06 | 114.15 | 
Cc1ccc(C2=N/C(=C\c3ccccc3)C(=O)O2)cc1 | 102.12 |  | 90.26 |  | 101.68 | 91.17 | 122.06 | 101.22 | 108.84 | 105.18 | 88.58 | 98.61 | 95.31 | 95.82 | 105.62 | 107.8 | 108.55 | 106.2 |  | 
O=C(NCc1ccc(Cl)cc1)c1[nH]c2ccccc2c1Cl | 103.29 | 94.4 | 83.18 | 106.79 | 96.15 | 88.19 | 104.86 | 91.63 | 100.82 | 106.69 |  | 99.33 | 116.56 | 109.59 | 98.93 | 108.03 | 111.13 | 105.86 | 76.55 | 
O=c1/c(=C/c2ccc(Cl)cc2Cl)sc2nc(-c3ccccc3)nn12 | 106.5 | 118.28 | 111.1 | 130.42 | 89.1 | 88.5 | 132.3 | 116.76 |  | 98.54 | 94.63 | 94.22 |  | 91.7 | 136.07 | 115.55 | 107.26 | 102.1 | 112.37 | 104.34
O=C(Nc1ccc2oc(=O)ccc2c1)c1ccc(-c2ccc(Cl)c(Cl)c2)o1 | 88.86 | 102.01 | 94.26 | 106.69 | 75.33 | 73.02 | 121.29 | 87.9 | 91.52 | 86.89 | 89.98 | 86.83 | 99.5 | 85.04 | 100.19 | 92.94 | 102.15 | 92.43 | 101.16 | 
Clc1ccc(-c2nc(-c3cccs3)no2)cc1 | 111.2 | 92.23 | 85.36 |  | 89.8 | 86.35 | 113.89 | 102.58 | 65.77 | 81.39 | 85.71 | 97.08 | 108.26 | 98.45 |  | 106.39 | 116.4 | 119.78 | 93.08 | 
Nc1c(C(=O)Nc2cccc(Cl)c2)sc2nc3c(cc12)C(=O)CCC3 | -39.08 | -20.21 | 58.16 | 52.39 | 43.7 | 57.06 | 10.22 | 40.31 | 60.44 | 43.9 | 39.11 | 54.42 | 58.33 | 33.11 | 49.7 | 23.87 | 69.74 | 11.61 | 49.32 | 
Cc1ccc2c(c1)N/C(=C/C(=O)c1ccc(Cl)cc1)C(=O)O2 | 105.53 | 113.06 | 106.62 | 136.06 | 93.82 | 86.91 | 118.18 | 105.93 | 88.88 | 86.67 | 110.86 | 93.53 | 106.86 | 97.02 | 99.95 | 105.84 | 108.87 | 112.1 |  | 
COc1ccc2nc(NC(=O)c3ccc(F)cc3)sc2c1 | 96.73 | 54.56 | 79.56 | 98.94 | 88.71 | 87.45 | 115.29 | 79.13 |  | 116.29 | 104.31 | 112.11 | 97.79 | 108.33 | 92.36 | 90.2 | 143.55 | 105.68 | 85.54 | 
CC1(C)CC(=O)c2cc3c(N)c(C(=O)Nc4ccccc4Cl)sc3nc2C1 | 105.18 | 96.7 | 108.8 | 126.77 | 100.17 | 104.6 | 125.06 | 132.4 |  | 116.03 |  | 104.5 |  |  | 121.48 | 105.6 | 111.24 | 109.85 | 71.33 | 103.08
Cc1ccc(C(=O)/C=C2/Nc3ccc(C)cc3OC2=O)cc1 | 106.99 | 132.37 | 92.88 | 115.36 | 96.95 | 83.44 | 120.49 | 96.63 | 96.74 | 88.3 | 100.89 | 96.84 | 120.4 | 82.69 | 114.26 | 106.8 | 123.75 | 118.59 | 86.34 | 
Cc1ccc(S(=O)(=O)Oc2ccc(-c3cnc4ccccc4n3)cc2)cc1 | 96.62 | 89.7 | 98.5 | 119.02 | 94.5 | 89.3 | 135.44 | 92.87 |  | 111.87 | 93.66 | 108.92 | 102.67 | 109.83 | 122.99 | 89.62 | 127.78 | 114.58 | 88.71 | 
